Test results: patent publication US20250144094A1 (Erasca, Inc., priority 2021, published 2025)

Molecular target: Recombinant human ULK1 (1-649) (Homo sapiens (Human), UniProt O75385)
Test: ULK1 ADP Glo kinase activity assay (MBP substrate)
Settings: 25° C., 40 minutes, read-out: ULK1 biochemical IC50
In short: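 GST-tagged ULK1 (1-649) from Sf9 cells phosphorylated MBP, with ATP, for 40 min at 25 °C across a 12-point series from 10 uM. ADP formed was quantified by ADP-Glo luminescence against DMSO controls. IC50 came from a four-parameter variable-slope fit of log concentration.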

Sequence of Recombinant human ULK1 (1-649) (O75385 1-649): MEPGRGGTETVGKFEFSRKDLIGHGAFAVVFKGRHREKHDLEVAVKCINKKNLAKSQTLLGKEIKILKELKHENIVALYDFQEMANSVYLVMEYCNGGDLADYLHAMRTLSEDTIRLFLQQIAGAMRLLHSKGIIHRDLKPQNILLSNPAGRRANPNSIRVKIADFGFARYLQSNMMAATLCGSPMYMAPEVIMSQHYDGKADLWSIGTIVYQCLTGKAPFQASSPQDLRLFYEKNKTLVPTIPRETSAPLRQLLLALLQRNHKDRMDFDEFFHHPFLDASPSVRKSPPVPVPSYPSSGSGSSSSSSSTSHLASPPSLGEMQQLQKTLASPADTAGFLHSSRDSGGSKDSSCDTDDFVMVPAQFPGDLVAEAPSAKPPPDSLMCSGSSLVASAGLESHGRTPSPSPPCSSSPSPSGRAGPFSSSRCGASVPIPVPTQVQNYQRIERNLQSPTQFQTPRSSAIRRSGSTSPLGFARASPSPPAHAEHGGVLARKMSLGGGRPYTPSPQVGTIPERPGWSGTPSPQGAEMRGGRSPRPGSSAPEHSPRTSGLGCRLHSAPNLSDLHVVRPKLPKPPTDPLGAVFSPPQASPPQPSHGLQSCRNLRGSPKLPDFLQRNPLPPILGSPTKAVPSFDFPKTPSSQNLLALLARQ

Structure (SMILES)	IC50
CS(=O)(=O)c1csc(-c2nc(Nc3cc4c(cc3Cl)CN(C3CC3)CC4)ncc2C(F)(F)F)c1 [Example 107, 7-chloro-2-cyclopropyl-N-[4-(4-methylsulfonyl-2-thienyl)-5-(trifluoromethyl)pyrimidin-2-yl]-3,4-dihydro-1H-isoquinolin-6-amine]	10 to 50 nM
CS(=O)(=O)c1csc(-c2nc(Nc3cc4c(cc3Cl)CN(CC(F)(F)F)CC4)ncc2C(F)(F)F)c1 [Example 108, 7-chloro-N-[4-(4-methylsulfonyl-2-thienyl)-5-(trifluoromethyl)pyrimidin-2-yl]-2-(2,2,2-trifluoroethyl)-3,4-dihydro-1H-isoquinolin-6-amine]	100 to 500 nM
CN1CCc2cc(Nc3ncc(C(F)(F)F)c(-c4cc5c(s4)CN(C)CCS5(=O)=O)n3)c(Cl)cc2C1 [Example 109, 7-chloro-2-methyl-N-[4-(4-methyl-1,1-dioxo-3,5-dihydro-2H-thieno[2,3-f][1,4]thiazepin-7-yl)-5-(trifluoromethyl)pyrimidin-2-yl]-3,4-dihydro-1H-isoquinolin-6-amine]	≤ 10 nM
CS(=O)(=O)c1csc(-c2nc(Nc3cc4c(cc3F)CCNC4)ncc2C(F)(F)F)c1 [Example 110, 6-fluoro-N-[4-(4-methylsulfonyl-2-thienyl)-5-(trifluoromethyl)pyrimidin-2-yl]-1,2,3,4-tetrahydroisoquinolin-7-amine]	≤ 10 nM
CN1CCc2cc(F)c(Nc3ncc(C(F)(F)F)c(-c4cc(S(C)(=O)=O)cs4)n3)cc2C1 [Example 111, 6-fluoro-2-methyl-N-[4-(4-methylsulfonyl-2-thienyl)-5-(trifluoromethyl)pyrimidin-2-yl]-3,4-dihydro-1H-isoquinolin-7-amine]	≤ 10 nM
CS(=O)(=O)c1csc(-c2nc(Nc3cc4c(cc3Cl)CN(C3CC3)C4)ncc2C(F)(F)F)c1 [Example 113, 6-chloro-2-cyclopropyl-N-[4-(4-methylsulfonyl-2-thienyl)-5-(trifluoromethyl)pyrimidin-2-yl]isoindolin-5-amine]	10 to 50 nM
CS(=O)(=O)c1csc(-c2nc(Nc3cc4c(cc3F)CN(C3CC3)C4)ncc2C(F)(F)F)c1 [Example 114, 2-cyclopropyl-6-fluoro-N-[4-(4-methylsulfonyl-2-thienyl)-5-(trifluoromethyl)pyrimidin-2-yl]isoindolin-5-amine]	10 to 50 nM
CN1CCc2cc(Nc3ncc(C(F)(F)F)c(-c4cc(S(C)(=O)=O)cs4)n3)c(C3CC3)cc2C1 [Example 115, 7-cyclopropyl-2-methyl-N-[4-(4-methylsulfonyl-2-thienyl)-5-(trifluoromethyl)pyrimidin-2-yl]-3,4-dihydro-1H-isoquinolin-6-amine]	≤ 10 nM
CN1CCc2cc(Nc3ncc(C(F)(F)F)c(-c4cc5c(s4)C(=O)N(C)CCS5(=O)=O)n3)c(Cl)cc2C1 [Example 116, 7-[2-[(7-chloro-2-methyl-3,4-dihydro-1H-isoquinolin-6-yl)amino]-5-(trifluoromethyl)pyrimidin-4-yl]-4-methyl-1,1-dioxo-2,3-dihydrothieno[2,3-f][1,4]thiazepin-5-one]	≤ 10 nM
O=S1(=O)CCNCc2sc(-c3nc(Nc4cc5c(cc4Cl)CN(C4CC4)CC5)ncc3C(F)(F)F)cc21 [Example 117, 7-chloro-2-cyclopropyl-N-[4-(1,1-dioxo-2,3,4,5-tetrahydrothieno[2,3-f][1,4]thiazepin-7-yl)-5-(trifluoromethyl)pyrimidin-2-yl]-3,4-dihydro-1H-isoquinolin-6-amine]	≤ 10 nM
CS(=O)(=O)c1csc(-c2nc(Nc3cc4c(cc3F)CN(C3CC3)CC4)ncc2C(F)(F)F)c1 [Example 118, 2-cyclopropyl-7-fluoro-N-[4-(4-methylsulfonyl-2-thienyl)-5-(trifluoromethyl)pyrimidin-2-yl]-3,4-dihydro-1H-isoquinolin-6-amine]	10 to 50 nM
Cc1nn(C2CCN(C)CC2)cc1Nc1ncc(C(F)(F)F)c(-c2cc(S(C)(=O)=O)cs2)n1 [Example 119, N-[3-methyl-1-(1-methyl-4-piperidyl)pyrazol-4-yl]-4-(4-methylsulfonyl-2-thienyl)-5-(trifluoromethyl)pyrimidin-2-amine]	≤ 10 nM
Cc1nn(C2CN(C)C2)cc1Nc1ncc(C(F)(F)F)c(-c2cc(S(C)(=O)=O)cs2)n1 [Example 120, N-[3-methyl-1-(1-methylazetidin-3-yl)pyrazol-4-yl]-4-(4-methylsulfonyl-2-thienyl)-5-(trifluoromethyl)pyrimidin-2-amine]	10 to 50 nM
CS(=O)(=O)c1csc(-c2nc(Nc3cc(C4CNC4)ccc3Cl)ncc2C(F)(F)F)c1 [Example 121, N-(5-(azetidin-3-yl)-2-chlorophenyl)-4-(4-(methylsulfonyl)thiophen-2-yl)-5-(trifluoromethyl)pyrimidin-2-amine]	50 to 100 nM
CN1CC(c2ccc(Cl)c(Nc3ncc(C(F)(F)F)c(-c4cc(S(C)(=O)=O)cs4)n3)c2)C1 [Example 122, N-(2-chloro-5-(1-methylazetidin-3-yl)phenyl)-4-(4-(methylsulfonyl)thiophen-2-yl)-5-(trifluoromethyl)pyrimidin-2-amine]	100 to 500 nM
Cc1nn(C2CNC2)cc1Nc1ncc(C(F)(F)F)c(-c2cc(S(C)(=O)=O)cs2)n1 [Example 123, N-(1-(azetidin-3-yl)-3-methyl-1H-pyrazol-4-yl)-4-(4-(methylsulfonyl)thiophen-2-yl)-5-(trifluoromethyl)pyrimidin-2-amine]	10 to 50 nM
Cc1nn(C2CN(C)C2)cc1Nc1ncc(C(F)(F)F)c(-c2cc(S(C)(=O)=O)cs2)n1 [Example 124, N-(3-methyl-1-(1-methylazetidin-3-yl)-1H-pyrazol-4-yl)-4-(4-(methylsulfonyl)thiophen-2-yl)-5-(trifluoromethyl)pyrimidin-2-amine]	100 to 500 nM

More lines, now with the values ahead:

IC50	Structure (SMILES)
100 to 500 nM	O=C1NCCS(=O)(=O)c2cc(-c3nc(Nc4cc5c(cc4Cl)CN(CC(F)(F)F)CC5)ncc3C(F)(F)F)sc21 [Example 125, 7-(2-((7-chloro-2-(2,2,2-trifluoroethyl)-1,2,3,4-tetrahydroisoquinolin-6-yl)amino)-5-(trifluoromethyl)pyrimidin-4-yl)-3,4-dihydrothieno[2,3-f][1,4]thiazepin-5(2H)-one 1,1-dioxide]
10 to 50 nM	O=C1NCCS(=O)(=O)c2cc(-c3nc(Nc4cc5c(cc4Cl)CN(C4CC4)CC5)ncc3C(F)(F)F)sc21 [Example 126, 7-(2-((7-chloro-2-cyclopropyl-1,2,3,4-tetrahydroisoquinolin-6-yl)amino)-5-(trifluoromethyl)pyrimidin-4-yl)-3,4-dihydrothieno[2,3-f][1,4]thiazepin-5(2H)-one 1,1-dioxide]
≤ 10 nM	CS(=O)(=O)c1csc(-c2nc(Nc3cc4c(cc3Cl)CNCCC4)ncc2C(F)(F)F)c1 [Example 127, 8-chloro-N-(4-(4-(methylsulfonyl)thiophen-2-yl)-5-(trifluoromethyl)pyrimidin-2-yl)-2,3,4,5-tetrahydro-1H-benzo[c]azepin-7-amine]
≤ 10 nM	CS(=O)(=O)c1csc(-c2nc(Nc3cn(C4CCNCC4)nc3C3CC3)ncc2C(F)(F)F)c1 [Example 128, N-(3-Cyclopropyl-1-(piperidin-4-yl)-1H-pyrazol-4-yl)-4-(4-(methylsulfonyl)thiophen-2-yl)-5-(trifluoromethyl)pyrimidin-2-amine]
≤ 10 nM	CN1CCC(n2cc(Nc3ncc(C(F)(F)F)c(-c4cc(S(C)(=O)=O)cs4)n3)c(C3CC3)n2)CC1 [Example 129, N-(3-cyclopropyl-1-(1-methylpiperidin-4-yl)-1H-pyrazol-4-yl)-4-(4-(methylsulfonyl)thiophen-2-yl)-5-(trifluoromethyl)pyrimidin-2-amine]
≤ 10 nM	CS(=O)(=O)c1csc(-c2nc(Nc3cc4c(cc3C3CC3)CNC4)ncc2C(F)(F)F)c1 [Example 131, 6-cyclopropyl-N-(4-(4-(methylsulfonyl)thiophen-2-yl)-5-(trifluoromethyl)pyrimidin-2-yl)isoindolin-5-amine]
≤ 10 nM	CS(=O)(=O)c1csc(-c2nc(Nc3cc4c(cc3C3CC3)CNCC4)ncc2C(F)(F)F)c1 [Example 132, 7-cyclopropyl-N-(4-(4-(methylsulfonyl)thiophen-2-yl)-5-(trifluoromethyl)pyrimidin-2-yl)-1,2,3,4-tetrahydroisoquinolin-6-amine]
≤ 10 nM	CN1CCCc2cc(Nc3ncc(C(F)(F)F)c(-c4cc(S(C)(=O)=O)cs4)n3)c(Cl)cc2C1 [Example 133, 8-chloro-2-methyl-N-(4-(4-(methylsulfonyl)thiophen-2-yl)-5-(trifluoromethyl)pyrimidin-2-yl)-2,3,4,5-tetrahydro-1H-benzo[c]azepin-7-amine]
≤ 10 nM	CCN1CCS(=O)(=O)c2cc(-c3nc(Nc4cc5c(cc4Cl)CNCC5)ncc3C(F)(F)F)sc2C1=O [Example 135, 7-(2-((7-chloro-1,2,3,4-tetrahydroisoquinolin-6-yl)amino)-5-(trifluoromethyl)pyrimidin-4-yl)-4-ethyl-3,4-dihydrothieno[2,3-f][1,4]thiazepin-5(2H)-one 1,1-dioxide]
10 to 50 nM	O=C1NCCOc2sc(-c3nc(Nc4cc5c(cc4Cl)CN(C(=O)C(F)(F)F)CC5)ncc3C(F)(F)F)cc21 [compound 70]
> 500 nM	CS(=O)(=O)c1cc(-c2nc(Nc3cc4c(cc3Cl)CN(C(=O)C(F)(F)F)CC4)ncc2C(F)(F)F)sc1C1=CCOCC1 [compound 74]
